Like-named read-outs stand apart in the source and are kept apart here.

As usually defined, the Ki is the equilibrium dissociation constant of an inhibitor or competing ligand from its target.

The assay addresses recombinant Mcl-1 (residues 172-327) (Homo sapiens (Human), UniProt Q07820). Nature of the assay: Fluorescence polarization anisotropy competition assay (FITC-Bak or FITC-Bim BH3 peptide) with Mcl-1. It is filed as binding. (Fluorescence polarisation rises when a labelled molecule tumbles more slowly, as on binding a larger partner.)
Setting [1] is: Table 2, Ki bins given in nM, FITC-Bak or FITC-Bim peptide competition, Ki converted from IC50, read-out: Ki for Inhibition of Mcl-1.

Sequence of recombinant Mcl-1 (residues 172-327) (Q07820 172-327): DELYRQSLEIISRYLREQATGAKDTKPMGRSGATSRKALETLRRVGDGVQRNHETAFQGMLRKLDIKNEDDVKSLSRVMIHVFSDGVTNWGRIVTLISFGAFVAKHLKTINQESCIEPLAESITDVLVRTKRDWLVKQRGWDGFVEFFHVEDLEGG

For `COC(=O)CNC(=O)c1[nH]c2ccccc2c1CCCOc1cc(C)c(Cl)c(C)c1` [I-2, methyl (3-(3-(4-chloro-3,5-dimethylphenoxy)propyl)-1H-indole-2-carbonyl)glycinate], the Ki was 1000 to 9990 nM.

Turning to `Cc1cc(OCCCc2c(C(=O)NCC(=O)O)[nH]c3ccccc23)cc(C)c1Cl` [I-3, (3-(3-(4-chloro-3,5-dimethylphenoxy)propyl)-1H-indole-2-carbonyl)glycine], the Ki is 501 to 999 nM. As to `Cc1cc(OCCCc2c(C(=O)NCC(=O)NS(=O)(=O)c3ccccc3)[nH]c3ccccc23)cc(C)c1Cl` [I-5, 3-(3-(4-chloro-3,5-dimethylphenoxy)propyl)-N-(2-oxo-2-(phenylsulfonamido)ethyl)-1H-indole-2-carboxamide], the Ki under setting [1] fell in the range of 101 to 299 nM. Same read-out and setting: the value for `Cc1cc(OCCCc2c(C(=O)NCC(=O)NS(=O)(=O)c3cccnc3)[nH]c3ccccc23)cc(C)c1Cl` [I-6, 3-(3-(4-chloro-3,5-dimethylphenoxy)propyl)-N-(2-oxo-2-(pyridine-3-sulfonamido)ethyl)-1H-indole-2-carboxamide] was 301 to 500 nM; that for `Cc1cc(OCCCc2c(C(=O)NCC(=O)NS(=O)(=O)c3ccc4ccccc4c3)[nH]c3ccccc23)cc(C)c1Cl` [I-7, 3-(3-(4-chloro-3,5-dimethylphenoxy)propyl)-N-(2-(naphthalene-2-sulfonamido)-2-oxoethyl)-1H-indole-2-carboxamide] was 101 to 299 nM.

Take `Cc1cc(OCCCc2c(C(=O)NCC(=O)NS(=O)(=O)c3ccc(Oc4ccccc4)cc3)[nH]c3ccccc23)cc(C)c1Cl` [I-8, 3-(3-(4-chloro-3,5-dimethylphenoxy)propyl)-N-(2-oxo-2-((4-phenoxyphenyl)sulfonamido)ethyl)-1H-indole-2-carboxamide]: under setting [1], the Ki lay within 101 to 299 nM. As for `Cc1cc(OCCCc2c(C(=O)NCC(=O)NS(=O)(=O)C3CC3)[nH]c3ccccc23)cc(C)c1Cl` [I-9, 3-(3-(4-chloro-3,5-dimethylphenoxy)propyl)-N-(2-(cyclopropanesulfonamido)-2-oxoethyl)-1H-indole-2-carboxamide], the Ki under setting [1] is 501 to 999 nM. `CCOC(=O)CCNC(=O)c1[nH]c2ccccc2c1CCCOc1cc(C)c(Cl)c(C)c1` [I-10, ethyl 3-(3-(3-(4-chloro-3,5-dimethylphenoxy)propyl)-1H-indole-2-carboxamido)propanoate]: for the setting “Table 2, Ki bins given in μM, FITC-Bak or FITC-Bim peptide competition, Ki converted from IC50, read-out: Ki for Inhibition of Mcl-1”, the Ki is 10000 to 50000 nM. Take `Cc1cc(OCCCc2c(C(=O)NCCC(=O)NS(=O)(=O)C3CC3)[nH]c3ccccc23)cc(C)c1Cl` [I-13, 3-(3-(4-chloro-3,5-dimethylphenoxy)propyl)-N-(3-(cyclopropanesulfonamido)-3-oxopropyl)-1H-indole-2-carboxamide]: the Ki under setting [1] lay in the range of 301 to 500 nM. Same read-out and setting: the value for `Cc1cc(OCCCc2c(C(=O)NCCC(=O)NS(=O)(=O)c3ccccc3)[nH]c3ccccc23)cc(C)c1Cl` [I-14, 3-(3-(4-chloro-3,5-dimethylphenoxy)propyl)-N-(3-oxo-3-(phenylsulfonamido)propyl)-1H-indole-2-carboxamide] was 51 to 100 nM; that for `Cc1cc(OCCCc2c(C(=O)NCCC(=O)NS(=O)(=O)c3cccnc3)[nH]c3ccccc23)cc(C)c1Cl` [I-15, 3-(3-(4-chloro-3,5-dimethylphenoxy)propyl)-N-(3-oxo-3-(pyridine-3-sulfonamido)propyl)-1H-indole-2-carboxamide] was 101 to 299 nM. Same read-out and setting: the value for `Cc1cc(OCCCc2c(C(=O)NCCC(=O)NS(=O)(=O)c3ccc4ccccc4c3)[nH]c3ccccc23)cc(C)c1Cl` [I-16, 3-(3-(4-chloro-3,5-dimethylphenoxy)propyl)-N-(3-(naphthalene-2-sulfonamido)-3-oxopropyl)-1H-indole-2-carboxamide] was 101 to 299 nM. Regarding `Cc1cc(OCCCc2c(C(=O)NCCC(=O)NS(=O)(=O)c3ccc(Oc4ccccc4)cc3)[nH]c3ccccc23)cc(C)c1Cl` [I-17, 3-(3-(4-chloro-3,5-dimethylphenoxy)propyl)-N-(3-oxo-3-((4-phenoxyphenyl)sulfonamido)propyl)-1H-indole-2-carboxamide], the inhibition constant (Ki) under setting [1] is 101 to 299 nM. Still for that read-out and setting: under `Cc1cc(OCCCc2c(C(=O)NCCC(=O)NS(=O)(=O)c3ccccc3C#N)[nH]c3ccccc23)cc(C)c1Cl` [I-18, 3-(3-(4-chloro-3,5-dimethylphenoxy)propyl)-N-(3-((2-cyanophenyl)sulfonamido)-3-oxopropyl)-1H-indole-2-carboxamide] stands 301 to 500 nM; under `Cc1cc(OCCCc2c(C(=O)NCCC(=O)NS(=O)(=O)c3cccc(C#N)c3)[nH]c3ccccc23)cc(C)c1Cl` [I-19, 3-(3-(4-chloro-3,5-dimethylphenoxy)propyl)-N-(3-((3-cyanophenyl)sulfonamido)-3-oxopropyl)-1H-indole-2-carboxamide], 101 to 299 nM.

Consider `Cc1cc(OCCCc2c(C(=O)NCCC(=O)NS(=O)(=O)c3ccccc3[N+](=O)[O-])[nH]c3ccccc23)cc(C)c1Cl` [I-20, 3-(3-(4-chloro-3,5-dimethylphenoxy)propyl)-N-(3-((2-nitrophenyl)sulfonamido)-3-oxopropyl)-1H-indole-2-carboxamide], for which the Ki under setting [1] was in the range of 101 to 299 nM.

In the case of `Cc1cc(OCCCc2c(C(=O)NCCC(=O)NS(=O)(=O)c3cccc([N+](=O)[O-])c3)[nH]c3ccccc23)cc(C)c1Cl` [I-21, 3-(3-(4-chloro-3,5-dimethylphenoxy)propyl)-N-(3-((3-nitrophenyl)sulfonamido)-3-oxopropyl)-1H-indole-2-carboxamide], the Ki under setting [1] fell in the range of 101 to 299 nM.

As to `Cc1cc(OCCCc2c(C(=O)NCCC(=O)NS(=O)(=O)c3ccc([N+](=O)[O-])cc3)[nH]c3ccccc23)cc(C)c1Cl` [I-22, 3-(3-(4-chloro-3,5-dimethylphenoxy)propyl)-N-(3-((4-nitrophenyl)sulfonamido)-3-oxopropyl)-1H-indole-2-carboxamide], under setting [1], the Ki fell in the range of 101 to 299 nM. Still for that read-out and setting: under `Cc1cc(OCCCc2c(C(=O)NCCC(=O)O)[nH]c3c(-c4c(C)n[nH]c4C)cccc23)cc(C)c1Cl` [I-23, 3-(3-(3-(4-chloro-3,5-dimethylphenoxy)propyl)-7-(3,5-dimethyl-1H-pyrazol-4-yl)-1H-indole-2-carboxamido)propanoic acid] stands below 50 nM. On the same count and under the same terms, under `Cc1cc(OCCCc2c(C(=O)NCCC(=O)NS(=O)(=O)c3ccc([N+](=O)[O-])cc3)[nH]c3c(-c4c(C)n[nH]c4C)cccc23)cc(C)c1Cl` [I-24, 3-(3-(4-chloro-3,5-dimethylphenoxy)propyl)-7-(3,5-dimethyl-1H-pyrazol-4-yl)-N-(3-((4-nitrophenyl)sulfonamido)-3-oxopropyl)-1H-indole-2-carboxamide] stands 101 to 299 nM.

On to `COC(=O)c1cccc(CNC(=O)c2[nH]c3c(-c4c(C)n[nH]c4C)cccc3c2CCCOc2cc(C)c(Cl)c(C)c2)c1` [I-25, methyl 3-((3-(3-(4-chloro-3,5-dimethylphenoxy)propyl)-7-(3,5-dimethyl-1H-pyrazol-4-yl)-1H-indole-2-carboxamido)methyl)benzoate], for which the Ki under setting [1] was 301 to 500 nM.

`Cc1cc(OCCCc2c(C(=O)NCc3cccc(C(=O)O)c3)[nH]c3c(-c4c(C)n[nH]c4C)cccc23)cc(C)c1Cl` [I-25a, 3-((3-(3-(4-chloro-3,5-dimethylphenoxy)propyl)-7-(3,5-dimethyl-1H-pyrazol-4-yl)-1H-indole-2-carboxamido)methyl)benzoic acid]: under setting [1], the Ki was below 50 nM.

The values above are taken from US10533010B2, “Substituted indole Mcl-1 inhibitors” (Vanderbilt University, priority 2014, dated 2020).
